The source of these data is the Kinase Knowledgebase extract (Sharma et al. 2016).

Where “and” joins values, the source holds several entries; their conditions need not be identical. Identical values can stand only once.

The target in the assay is MAPK14 (human) (UniProt Q16539). Description: Inhibition of LPS Stimulated TNF Production by U937 Cells. The note with it: for inhibition: concentration not given here.
Sequence of MAPK14 (human) (Q16539 whole entry, looked up): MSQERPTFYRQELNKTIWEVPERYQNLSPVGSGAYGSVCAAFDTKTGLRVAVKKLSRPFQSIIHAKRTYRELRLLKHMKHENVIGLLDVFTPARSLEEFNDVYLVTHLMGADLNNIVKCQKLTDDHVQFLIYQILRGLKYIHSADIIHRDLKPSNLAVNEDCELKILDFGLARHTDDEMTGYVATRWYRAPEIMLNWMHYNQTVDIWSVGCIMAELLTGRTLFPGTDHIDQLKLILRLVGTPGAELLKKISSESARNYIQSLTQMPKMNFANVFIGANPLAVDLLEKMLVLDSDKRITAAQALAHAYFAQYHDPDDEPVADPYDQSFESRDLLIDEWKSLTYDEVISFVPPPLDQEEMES

What is called IC50 is the concentration needed to halve the response being measured. High values mean lower potency, low ones higher potency. In turn, `O=C(c1ccccc1F)N1CCC(c2[nH]nc(-c3ccc(F)cc3)c2-c2ccncc2)CC1` registered an IC50 of 410 nM. The term inhibition denotes the share of the control response that was lost under treatment. A lower inhibition goes with little suppression. In turn, `O=S(=O)(c1cccc(Cl)c1)N1CCC(c2[nH]nc(-c3ccc(F)cc3)c2-c2ccncc2)CC1` came in with an inhibition of 31%. The compound `CCCCS(=O)(=O)NCc1[nH]nc(-c2ccc(F)cc2)c1-c1ccncc1` had an IC50 of 5000 nM. In turn, `Cc1cc(C)c(NC(=O)NCc2[nH]nc(-c3ccc(F)cc3)c2-c2ccncc2)c(C)c1` showed an inhibition of 25%. In turn, `Fc1ccc(-c2n[nH]cc2-c2ccnc(-c3c[nH]nc3-c3ccc(F)cc3)c2)cc1` displayed an IC50 of 602 nM. Compound `C[C@@H](NC(=O)c1cc(F)cc(F)c1)c1[nH]nc(-c2ccc(F)cc2)c1-c1ccncc1` had an inhibition of 48%. As to `CC(C)OC(=O)N[C@H](C)c1[nH]nc(-c2ccc(F)cc2)c1-c1ccncc1`, the inhibition turned out to be 45%. The same measure, in the same setting: as for `C[C@H](NC(=O)c1ccc(F)c(C(F)(F)F)c1)c1[nH]nc(-c2ccc(F)cc2)c1-c1ccncc1`, the figure is 27%; as for `O=C(NCc1[nH]nc(-c2ccc(F)cc2)c1-c1ccncc1)c1ccc(Cl)nc1`, 15%; as for `O=C(NCc1[nH]nc(-c2ccc(F)cc2)c1-c1ccncc1)c1ccc(F)cc1F`, 54%. Same read-out and setting: next, `C[C@@H](NC(=O)Nc1cccc(F)c1)c1[nH]nc(-c2ccc(F)cc2)c1-c1ccncc1`: 27%.

For the compound `C[C@@H](NC(=O)c1ccccc1I)c1[nH]nc(-c2ccc(F)cc2)c1-c1ccncc1`, the IC50 came out at 660 nM.

As for `O=S(=O)(NCc1[nH]nc(-c2ccc(F)cc2)c1-c1ccncc1)c1ccccc1C(F)(F)F`, the inhibition was 46%. Take `O=C(C1CC1)N1CCC(c2[nH]nc(-c3ccc(F)cc3)c2-c2ccncc2)CC1`: the IC50 is 270 nM. With `Cc1c(Cl)cccc1S(=O)(=O)N[C@H](C)c1[nH]nc(-c2ccc(F)cc2)c1-c1ccncc1`, the inhibition was found to be 71%. Turning to `OCCn1ncc(-c2ccnc(NCc3ccc(F)cc3)c2)c1-c1ccc(F)cc1`, the IC50 is 800 nM and 6020 nM. For the compound `CCS(=O)(=O)N[C@H](Cc1ccccc1)c1[nH]nc(-c2ccc(F)cc2)c1-c1ccncc1`, the inhibition came out at 5%.

The compound `O=S(=O)(c1ccc(F)cc1)N1CCC(c2[nH]nc(-c3ccc(F)cc3)c2-c2ccncc2)CC1` returned an inhibition of 28%.

For the compound `O=S(=O)(NCc1[nH]nc(-c2ccc(F)cc2)c1-c1ccncc1)c1ccc(F)cc1F`, the IC50 was found to be 2170 nM. For `CC(C)NC(=O)N[C@H](C)c1[nH]nc(-c2ccc(F)cc2)c1-c1ccncc1`, the inhibition was found to be 52%. Still for that read-out and setting: as for `O=S(=O)(c1ccc(-c2ccon2)s1)N1CCC(c2[nH]nc(-c3ccc(F)cc3)c2-c2ccncc2)CC1`, the figure is 3%; as for `C[C@@H](NS(=O)(=O)Cc1ccccc1[N+](=O)[O-])c1[nH]nc(-c2ccc(F)cc2)c1-c1ccncc1`, 91%. Turning to `Cc1nn(C)c(-c2ccc(Cl)cc2)c1-c1ccncc1`, the IC50 was 2700 nM.

Compound `CSc1cccc(NC(=O)NCc2[nH]nc(-c3ccc(F)cc3)c2-c2ccncc2)c1` yielded an inhibition of 12%. In turn, `O=C(COc1ccc(Cl)cc1)NCc1[nH]nc(-c2ccc(F)cc2)c1-c1ccncc1` yielded an IC50 of 1250 nM. In turn, `CCc1ccc(S(=O)(=O)N[C@@H](C)c2[nH]nc(-c3ccc(F)cc3)c2-c2ccncc2)cc1` gave an inhibition of 92%. Still for that read-out and setting: next, `C[C@@H](NS(=O)(=O)c1cn(C)cn1)c1[nH]nc(-c2ccc(F)cc2)c1-c1ccncc1`: 80%. Turning to `O=C(N[C@H](Cc1ccccc1)c1[nH]nc(-c2ccc(F)cc2)c1-c1ccncc1)[C@H]1CCCN1`, the inhibition turned out to be 2%. `CNC(=O)CC[C@H](NC(=O)Cc1cccc(OC)c1)c1[nH]nc(-c2ccc(F)cc2)c1-c1ccncc1` gave an inhibition of 3%. On to `C[C@H](NC(=O)c1ccno1)c1[nH]nc(-c2ccc(F)cc2)c1-c1ccncc1`, for which the inhibition stood at 28%. On the same count and under the same terms, as for `C[C@H](NS(=O)(=O)c1ccc(-c2ccon2)s1)c1[nH]nc(-c2ccc(F)cc2)c1-c1ccncc1`, the figure is 95%; as for `C[C@@H](NS(=O)(=O)/C=C/c1ccccc1)c1[nH]nc(-c2ccc(F)cc2)c1-c1ccncc1`, 36%; as for `COc1ccc(Cl)cc1S(=O)(=O)N[C@H](C)c1[nH]nc(-c2ccc(F)cc2)c1-c1ccncc1`, 87%.

With `Cc1cccc(S(=O)(=O)N2CCC(c3[nH]nc(-c4ccc(F)cc4)c3-c3ccncc3)CC2)c1`, the inhibition amounted to 1%. On the same count and under the same terms, as for `C[C@@H](NS(=O)(=O)c1cccc(Br)c1)c1[nH]nc(-c2ccc(F)cc2)c1-c1ccncc1`, the figure is 95%.

`O=C(NCc1[nH]nc(-c2ccc(F)cc2)c1-c1ccncc1)c1ccccc1Br`: the inhibition came out at 50%.

For the compound `Cc1onc(-c2ccccc2Cl)c1C(=O)NCc1[nH]nc(-c2ccc(F)cc2)c1-c1ccncc1`, the inhibition came to 21%. The compound `C[C@@H](NC(=O)Cc1cccs1)c1[nH]nc(-c2ccc(F)cc2)c1-c1ccncc1` showed an inhibition of 33%. Still for that read-out and setting: as for `O=C(NCc1[nH]nc(-c2ccc(F)cc2)c1-c1ccncc1)c1cccnc1`, the figure is 16%. `O=C(NCc1[nH]nc(-c2ccc(F)cc2)c1-c1ccncc1)c1ccc(F)c(F)c1F` returned an IC50 of 3270 nM. In turn, `CCCS(=O)(=O)N[C@H](Cc1ccccc1)c1[nH]nc(-c2ccc(F)cc2)c1-c1ccncc1` returned an inhibition of 13%. Same read-out and setting: next, `COc1ccccc1C(=O)N[C@H](C)c1[nH]nc(-c2ccc(F)cc2)c1-c1ccncc1`: 23%. On to `CN(C(=O)N[C@H](Cc1ccccc1)c1[nH]nc(-c2ccc(F)cc2)c1-c1ccncc1)c1ccccc1`, for which the IC50 is greater than 1000 nM. `O=S(=O)(NCc1[nH]nc(-c2ccc(F)cc2)c1-c1ccncc1)c1cc(Cl)cc(Cl)c1O` yielded an inhibition of 6%. On the same count and under the same terms, as for `O=S(=O)(N[C@H](Cc1ccccc1)c1[nH]nc(-c2ccc(F)cc2)c1-c1ccncc1)c1cccs1`, the figure is 29%. In turn, `COc1cc(NC(=O)CCNC(=O)Cn2nc(-c3ccc(F)cc3)c(-c3ccncc3)c2C)cc2ccccc12` returned an IC50 of 4220 nM. Regarding `CCOC(=O)c1ccc(NC(=O)NCc2[nH]nc(-c3ccc(F)cc3)c2-c2ccncc2)cc1`, the inhibition amounted to 13%. Still for that read-out and setting: as for `O=C(NCc1[nH]nc(-c2ccc(F)cc2)c1-c1ccncc1)[C@H]1CCCN1C(=O)OCC1c2ccccc2-c2ccccc21`, the figure is 14%; as for `CC(C)S(=O)(=O)N[C@H](C)c1[nH]nc(-c2ccc(F)cc2)c1-c1ccncc1`, 52%. For `Fc1ccc(CNc2cc(-c3cn(CCN4CCOCC4)nc3-c3ccc(F)cc3)ccn2)cc1`, the IC50 was 180 nM and 450 nM. In the case of `C[C@H](NS(=O)(=O)c1cccc2cnccc12)c1[nH]nc(-c2ccc(F)cc2)c1-c1ccncc1`, the inhibition worked out at 75%.

`O=C(NCc1[nH]nc(-c2ccc(F)cc2)c1-c1ccncc1)c1cccc(Cl)c1`: the inhibition is 32%. Turning to `COc1ccc(CC(=O)N[C@H](Cc2ccccc2)c2[nH]nc(-c3ccc(F)cc3)c2-c2ccncc2)cc1`, the IC50 was greater than 1000 nM. The same measure, in the same setting: next, `OCCn1cc(-c2ccnc(NCc3ccc(F)cc3)c2)c(-c2ccc(F)cc2)n1`: 140 nM and 800 nM. Same read-out and setting: as for `OCCn1cc(-c2ccnc(/C=C/c3ccc(F)cc3)c2)c(-c2ccc(F)cc2)n1`, the figure is 347 nM. In turn, `NS(=O)(=O)c1ccc(CNC(=O)NCCCc2[nH]nc(-c3ccc(F)cc3)c2-c2ccncc2)cc1` yielded an IC50 greater than 1000 nM.

Consider `CC(C)COC(=O)N[C@H](C)c1[nH]nc(-c2ccc(F)cc2)c1-c1ccncc1`, for which the inhibition is 32%.

On to `CCOC(=O)C(CC(C)C)NC(=O)NCc1[nH]nc(-c2ccc(F)cc2)c1-c1ccncc1` (stereo not given), for which the inhibition worked out at 9%. Take `Cc1cccc(C)c1NC(=O)NCc1[nH]nc(-c2ccc(F)cc2)c1-c1ccncc1`: the IC50 was 2360 nM. For `COc1ccc(CC(=O)N[C@@H](C)c2[nH]nc(-c3ccc(F)cc3)c2-c2ccncc2)cc1`, the inhibition amounted to 22%. Still for that read-out and setting: as for `O=C(NCc1[nH]nc(-c2ccc(F)cc2)c1-c1ccncc1)c1ccccc1Cl`, the figure is 55%; as for `C[C@H](NS(=O)(=O)c1ccccc1C(F)(F)F)c1[nH]nc(-c2ccc(F)cc2)c1-c1ccncc1`, 55%. Same read-out and setting: as for `CN(C)c1ccc(CNC(=O)NCCCc2[nH]nc(-c3ccc(F)cc3)c2-c2ccncc2)cc1`, the figure is 15%. `CNC(=O)CC[C@H](NC(=O)c1ccno1)c1[nH]nc(-c2ccc(F)cc2)c1-c1ccncc1` registered an IC50 greater than 1000 nM. The same measure, in the same setting: next, `Cc1onc(-c2c(F)cccc2Cl)c1C(=O)NCc1[nH]nc(-c2ccc(F)cc2)c1-c1ccncc1`: greater than 1000 nM; `COc1ccc(CC(=O)NCc2[nH]nc(-c3ccc(F)cc3)c2-c2ccncc2)cc1`: 8240 nM. Regarding `O=C(NCc1[nH]nc(-c2ccc(F)cc2)c1-c1ccncc1)C1CCCC1`, the inhibition came out at 13%.

Take `CNC(=O)CC[C@H](NC(=O)c1ccc(C)cc1)c1[nH]nc(-c2ccc(F)cc2)c1-c1ccncc1`: the IC50 is greater than 1000 nM.

`O=C(NCc1[nH]nc(-c2ccc(F)cc2)c1-c1ccncc1)N[C@@H]1C[C@@H]1c1ccccc1` showed an inhibition of 21%. `CNC(=O)N[C@H](C)c1[nH]nc(-c2ccc(F)cc2)c1-c1ccncc1` yielded an inhibition of 50%.

In the case of `C[C@H](NS(=O)(=O)c1ccc(Br)cc1)c1[nH]nc(-c2ccc(F)cc2)c1-c1ccncc1`, the inhibition was 87%.

As for `C[C@@H](NS(=O)(=O)c1cccc2cnccc12)c1[nH]nc(-c2ccc(F)cc2)c1-c1ccncc1`, the inhibition was determined as 74%. Take `Fc1ccc(CNc2cc(-c3cnn(CCN4CCOCC4)c3-c3ccc(F)cc3)ccn2)cc1`: the IC50 amounted to 450 nM.

`C[C@H](NS(=O)(=O)c1cccc(Cl)c1Cl)c1[nH]nc(-c2ccc(F)cc2)c1-c1ccncc1`: the inhibition stood at 78%. In the case of `O=C(c1cccs1)N1CCC(c2[nH]nc(-c3ccc(F)cc3)c2-c2ccncc2)CC1`, the IC50 turned out to be 370 nM. As for `O=C(NCCCc1[nH]nc(-c2ccc(F)cc2)c1-c1ccncc1)NCCCN1CCCC1`, the inhibition was determined as 1%.

`Cc1ccc(F)cc1S(=O)(=O)NCc1[nH]nc(-c2ccc(F)cc2)c1-c1ccncc1` yielded an inhibition of 24%. Regarding `Cc1n[nH]c(-c2ccc(C(F)(F)F)cc2)c1-c1ccncc1`, the IC50 stood at 522 nM. `C[C@H](NC(=O)c1cccc(F)c1F)c1[nH]nc(-c2ccc(F)cc2)c1-c1ccncc1` returned an inhibition of 32%. On the same count and under the same terms, as for `O=S(=O)(NCCc1[nH]nc(-c2ccc(F)cc2)c1-c1ccncc1)c1cccc(Cl)c1Cl`, the figure is 21%.
